The text below walks through data of US20010047018A1 (published 2001).

Broadly, the melting point is the temperature, or range, at which the solid turns liquid. `CC(=O)NC[C@H]1CN(c2ccc3c(c2)CS(=O)(=O)N3C)C(=O)O1` gave a melting point of 84 to 86 °C.
On to `CC(=S)NC[C@H]1CN(c2ccc3c(c2)CS(=O)(=O)N3CCF)C(=O)O1`, for which the melting point is 90 to 93 °C (dec.).
Under `CC(=O)NC[C@H]1CN(c2ccc3c(c2)CS(=O)(=O)N3CCF)C(=O)O1` stands 84 to 87 °C (dec.); under `CC(=O)NC[C@H]1CN(c2ccc3c(c2)CS(=O)(=O)N3CC#N)C(=O)O1`, 124 to 126 °C (dec.).
